According to patent US9828375B2, “4-position substituted pyrazolopyrimidine derivative, and use thereof in drug preparation” (Guangxi Wuzhou Pharmaceuticals (Group) Co., Ltd., priority 2012, dated 2017):
Where two headings read alike, the source gives them in different places.

What was measured:
[1] = test system: human leukemia cell line MV4-11; assay: In vitro tumor cell proliferation inhibition (MTT): MV4-11; format: cell-based
Source text: (§1) The purpose of the experiment was to test the inhibition activity of the compounds of the invention for in vitro human tumor cell proliferation by the methyl thiazolyl tetrazolium (MTT) colorimetry.
(§2) Main reagents: RPMI-1640, fetal bovine serum, pancreatin, etc. were purchased from Gibco BRL Company (Invitrogen Corporation, USA) and IMDM medium that was purchased from American Type Culture Collection (ATCC). Methyl thiazolyl tetrazolium (MTT) and dimethyl sulfoxide (DMSO) were products from Sigma Company (USA). Pyrazolopyrimidine derivatives were composed by the inventor. During in vitro experiment, 100% DMSO was prepared into 10 mM storage solution, the solution was stored in a refrigerator at −20° C. for future use, and was diluted to the required concentration with complete culture solution before use.
(§3) Cell line and culture: Human leukemia cell line MV4-11, Jurkat, K562, human thyrophyma cell line TT, human gastric carcinoma cell line MKN-45, human malignant melanoma cell lines A375 and A875, human pancreatic carcinoma cell line panc-1, human cervical carcinoma cell line HELA, human colorectal carcinoma cell line HCT116, etc. were purchased from American type culture collection and were preserved by this laboratory. All leukemia cell lines (except MV4-11), gastric carcinoma cell lines and thyrophyma cell lines were cultured in RPMI-1640 complete medium containing 10% fetal bovine serum, 100 U/mL penicillin and 100 μg/mL streptomycin at 37° C. in 5% CO2. The remaining cell lines were cultured in DMEM complete medium containing 10% fetal bovine serum (containing 20% MV4-11 cell), 100 U/mL penicillin and 100 µg/mL streptomycin at 37° C. in 5% CO2.
(§4) Cell suspension with cell concentration of 1-2×10^4/mL was adjusted with the complete cell medium and inoculated in a 96-well plate, with each well filled with 200 μl cell suspension that was cultured overnight. On the next day, supernatant was sucked and abandoned (supernatant was sucked upon centrifugation of suspension cells), and then cells were processed with test compounds at gradient concentrations respectively. Meanwhile, a negative control group free from drug and a solvent control group with equal volume were set, and the DMSO concentration was 0.1%. Each dose group was provided with three wells and cultured at 37° C. in 5% CO2. After 72 hours, 20 μl 5 mg/mL MTT reagent was added to each well, and cultured for another 2 to 4 hours, the supernatant was abandoned; 150 μL DMSO was added to each well again, vibrated and mixed evenly for 15 minutes; the absorbance (A) values (proportional to living cell amount) were determined with a microplate reader (λ=570 nm) and averaged. […] Experiment was repeated for 3 times at least. Experimental data were expressed with means, data statistics were tested by t, and P<0.05 means that difference has a statistical significance. The cell proliferation inhibition effects of all compounds as follows are expressed by IC50 or inhibition rate.

[2] = test system: human cervical carcinoma cell line HELA; assay: In vitro tumor cell proliferation inhibition (MTT): HELA; format: cell-based; conditions: 72 hours
Source text: as §1, §2, §3, §4

[3] = test system: human leukemia cell line K562; assay: In vitro tumor cell proliferation inhibition (MTT): K562; format: cell-based
Source text: as §1, §2, §3, §4

[4] = test system: human malignant melanoma cell line A875; assay: In vitro tumor cell proliferation inhibition (MTT): A875; format: cell-based
Source text: as §1, §2, §3, §4

[5] = test system: human pancreatic carcinoma cell line panc-1; assay: In vitro tumor cell proliferation inhibition (MTT): panc-1; format: cell-based
Source text: as §1, §2, §3, §4

[6] = test system: human thyrophyma cell line TT; assay: In vitro tumor cell proliferation inhibition (MTT): TT; format: cell-based
Source text: as §1, §2, §3, §4

[7] = test system: human colorectal carcinoma cell line HCT116; assay: In vitro tumor cell proliferation inhibition (MTT): HCT116; format: cell-based
Source text: as §1, §2, §3, §4

[8] = test system: human gastric carcinoma cell line MKN-45; assay: In vitro tumor cell proliferation inhibition (MTT): MKN-45; format: cell-based
Source text: as §1, §2, §3, §4

[9] = test system: human leukemia cell line Jurkat; assay: In vitro tumor cell proliferation inhibition (MTT): Jurkat; format: cell-based; conditions: 72 hours
Source text: as §1, §2, §3, §4

[10] = test system: human malignant melanoma cell line A375; assay: In vitro tumor cell proliferation inhibition (MTT): A375; format: cell-based
Source text: as §1, §2, §3, §4

[11] = test system: human acute myeloid leukemia cell line MV4-11; assay: In vivo anti-leukemia tumor experiment, NOD-SCID mice-subcutaneous MV4-11 model, tumors more than 2000 mm^3
Source text: The cell line used was human acute myeloid leukemia cell line MV4-11, with anti-leukemia drug Quizartinib (AC220) as a positive control.

[12] = Homo sapiens, HCT-116, 72 hours

| Compound | IC50 ([1]; Homo sapiens, MV4-11, 72 h) | IC50 ([2]; Homo sapiens, HeLa) | IC50 ([3]; Homo sapiens, K562, 72 hours) | IC50 ([4]; Homo sapiens, A875, 72 hours) | IC50 ([5]; Homo sapiens, PANC-1, 72 hours) | IC50 ([6]; Homo sapiens, 72 h) | IC50 [7, 12] | IC50 ([8]; Homo sapiens, MKN-45, 72 hours) | IC50 ([9]; Homo sapiens, Jurkat) | IC50 ([10]; Homo sapiens, A-375, 72 hours) | further results |
| --- | --- | --- | --- | --- | --- | --- | --- | --- | --- | --- | --- |
| CC(C)(C)c1cc(NC(=O)Nc2ccc(Oc3ncnc4[nH]ncc34)c(Cl)c2)no1 [4a-46, 1-(4-((1H-pyrazolopyrimidine-4-yl)oxy)-3-chlorphenyl)-3-(5-tert-butylisoxazol-3-yl)urea] | 3 nM | < 50 µM | 3 to 10 µM | < 10 µM | 1 to 3 µM | 1 to 3 µM | < 10 µM | < 50 µM | 1 to 3 µM | < 10 µM | – |
| O=C(Nc1ccc(Cl)c(C(F)(F)F)c1)Nc1ccc(Oc2ncnc3[nH]ncc23)cc1Cl [4a-55] | 54.2 nM | – | < 50 µM | – | < 50 µM | – | < 50 µM | – | < 50 µM | – | – |
| O=C(Nc1ccc(C(F)(F)F)cc1)Nc1cccc(Oc2ncnc3[nH]ncc23)c1 [4a-43] | < 5000 nM | < 50 µM | < 50 µM | < 50 µM | < 50 µM | 4.57 µM | < 50 µM | < 50 µM | < 50 µM | < 50 µM | – |
| O=C(Nc1cccc(Oc2ncnc3[nH]ncc23)c1)Nc1cccc(C(F)(F)F)c1 [4a-41] | – | – | – | – | – | – | – | – | – | – | IC50 ([3]; 72 hours): < 50 µM; IC50 ([4]; 72 hours): < 50 µM; IC50 ([5]; 72 hours): < 50 µM; IC50 ([6]; 72 hours): < 50 µM; IC50 ([7]; 72 hours, read-out: Proliferation inhibition activity (IC50) HCT 116): < 50 µM; IC50 ([1]; 72 hours): 7820 nM; IC50 ([8]; 72 hours): < 50 µM; IC50 [9]: < 50 µM; IC50 [2]: < 50 µM; IC50 ([10]; 72 hours): < 50 µM |
| Cn1nc(C(C)(C)C)cc1NC(=O)Nc1ccc(Oc2ncnc3[nH]ncc23)c(Cl)c1 [4a-32, 1-(4-((1H-pyrazolopyrimidine-4-yl)oxy)-3-chlorphenyl)-3-(3-tert-butyl-1-methylpyrazol-5-yl)urea] | 1 nM | – | – | 3 to 10 µM | 3 to 10 µM | – | < 50 µM | 3 to 10 µM | 3 to 10 µM | 3 to 10 µM | – |

Continued, in another order:

| IC50 ([1]; Homo sapiens, MV4-11, 72 h) | IC50 ([2]; Homo sapiens, HeLa) | IC50 ([3]; Homo sapiens, K562, 72 hours) | IC50 ([4]; Homo sapiens, A875, 72 hours) | IC50 ([5]; Homo sapiens, PANC-1, 72 hours) | IC50 ([6]; Homo sapiens, 72 h) | IC50 [7, 12] | IC50 ([8]; Homo sapiens, MKN-45, 72 hours) | IC50 ([9]; Homo sapiens, Jurkat) | IC50 ([10]; Homo sapiens, A-375, 72 hours) | Compound | further results |
| --- | --- | --- | --- | --- | --- | --- | --- | --- | --- | --- | --- |
| 0.00984 nM | < 50 µM | – | – | – | – | – | – | – | – | CC(C)(C)c1cc(NC(=O)Nc2ccc(Oc3ncnc4[nH]ncc34)c(F)c2)n(C(=O)O)n1 [4a-59] | – |
| 28 nM | < 50 µM | – | – | – | 4.13 µM | – | < 50 µM | < 50 µM | – | CN(C)CCCn1ncc2c(Oc3ccc(NC(=O)Nc4cc(C(C)(C)C)on4)cc3)ncnc21 [5a-6] | – |
| – | – | – | < 50 µM | < 50 µM | < 50 µM | – | < 50 µM | < 50 µM | < 50 µM | CC(C)n1ncc2c(Oc3ccc(NC(=O)Nc4cc(C(C)(C)C)[nH]n4)cc3)ncnc21 [5a-7, 1-(5-tert-butyl-1H-pyrazol-3-yl)-3-(4-(1-isopropyl-(1H-pyrazolopyrimidine-4-yl)oxy)phenyl)urea] | – |
| 0.0146 nM | < 50 µM | – | – | – | – | – | – | – | – | CC(C)(C)c1cc(NC(=O)Nc2ccc(Oc3ncnc4[nH]ncc34)cc2)n(C(=O)O)n1 [4a-58] | weight loss, rash, diarrhea and other adverse reactions during administration ([11]; NOD-SCID mice, 3 and 10 mg/kg q.d. oral): not found; in vivo tumor growth inhibition effect ([11]; daily dose of 3 mg/kg or above, oral, MV4-11 tumors more than 2000 mm^3 at start): completely inhibit tumor growth |
